Assay results published in US20150337013A1, “NOVEL ANTIBACTERIAL AGENTS FOR THE TREATMENT OF GRAM POSITIVE INFECTIONS” (priority 2008, published 2015).
Where “and” joins values, the source holds several entries; their conditions need not be identical. Equal values may be shown once.

Experiments:
[1] = system: daptomycin resistant Staph. aureus (DRSA), daptomycin resistant E. faecium (DREfm) and daptomycin resistance E. faecalis (DREfs); experiment: Activity against daptomycin resistant bacteria, summary statement; format: cell-based; settings: statement in words
Method: (§1) Compounds according to Formula I were tested for antimicrobial activity against a panel of organisms. Aerobic organisms, Staphylococcus aureus, Enterococcus faecalis and E. faecium, were tested by broth microdilution according to Clinical and Laboratory Standards Institute (CLSI) document M7-A7 (Clinical and Laboratory Standards Institute. Methods for Dilution Antimicrobial Susceptibility Tests for Bacteria that Grow Aerobically; Approved Standard—Seventh Edition. CLSI document M7-A7 [ISBN 1-56238-587-9]. Clinical and Laboratory Standards Institute, 940 West Valley Road, Suite 1400, Wayne, Pa. 19087-1898 USA, 2006) with modifications as described below. Mueller Hinton Broth (MHBc) was supplemented with 50 mg/L calcium (equivalent to human physiological levels of calcium) and assay plates were incubated 18-20 hours at 37° C. with aeration (200 rpm).
(§2) In all cases the final concentration of dimethyl sulfoxide incubated with cells is less than or equal to 1%. For minimum inhibitory concentration (MIC) calculations, 2-fold dilutions of compounds were added to wells of a microtiter plate containing 5×10^5 bacteria in a final volume of 100 μL of media. Following incubation, (18-20 hours at 37° C. with aeration at 200 rpm) growth was confirmed visually by placing plates over a viewing apparatus (stand with a mirror underneath) and then the optical density (OD600) was measured using a SpectraMax 340PC^384 plate reader. Growth was defined as turbidity that could be detected with the naked eye or achieving minimum OD600of 0.1. MIC values (in μg/mL) were defined as the lowest concentration producing no visible turbidity.

[2] = system: Enterococcus faecalis EFS.201 (ATCC 49452); format: cell-based; settings: ATCC 49452
Outline: (§3)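 MIC in μg/mL, taken as the lowest compound concentration producing no visible turbidity after 18-20 hours at 37° C with shaking at 200 rpm. Organisms were grown in calcium-supplemented (50 mg/L) Mueller Hinton broth at 5×10^5 bacteria per well.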

[3] = system: Staphylococcus aureus SAU.399 (ATCC 43300), Methicillin and Oxacillin Resistant; format: cell-based; settings: MHBc with 50 mg/L calcium, 18-20 hours at 37° C.
Outline: as §3

[4] = system: Enterococcus faecium EFM.384, Daptomycin resistant mutant (14-A); format: cell-based; settings: MHBc with 50 mg/L calcium, 18-20 hours at 37° C.
Outline: as §3

[5] = system: Staphylococcus aureus SAU.42 (ATCC 29213); format: cell-based; settings: ATCC 29213
Outline: as §3

[6] = system: C. difficile spores (ATCC #43596); experiment: Hamster C. difficile infection (CDAD) protection model; format: in vivo, Syrian golden hamsters; settings: oral 0.5 mg/kg once daily for 5 days (MET 70 mg/kg three times daily for 5 days)
Method: Syrian golden hamsters were pretreated with 10 mg/kg clindamycin subcutaneously 24 hours before bacterial challenge. An inoculum of 20 C. difficile spores (ATCC #43596) in sterile saline was administered orally. Treatment was initiated 4 hours post-inoculation with dH2O, metronidazole (MET), vancomycin (VAN), or a compound of the present invention. Oral dosing regimens for VAN and compounds of Formula I were 0.5 mg/kg once daily for 5 days. MET was administered at 70 mg/kg three times daily for 5 days. CDAD was confirmed as the cause of death by observations at necropsy, including wet tail and/or macroscopic cecal alterations. The % protection provided by each therapy tested was calculated at 1 and 21 days post-dosing.

[7] = system: gram positive bacteria; experiment: Antimicrobial activity against a panel of organisms, summary statements; format: cell-based; settings: statement in words
Method: as §1, §2

[8] = system: Clostridium difficile
[9] = system: Enterococcus faecalis EFS.312, Daptomycin resistant mutant (EFA); format: cell-based; settings: MHBc with 50 mg/L calcium, 18-20 hours at 37° C.
Outline: as §3

[10] = system: Staphylococcus aureus SAU.278, Daptomycin resistant mutant (D10); format: cell-based; settings: MHBc with 50 mg/L calcium, 18-20 hours at 37° C.
Outline: as §3

[11] = system: NAP1 Clostridium difficile strain

Row | SMILES | useful against daptomycin resistant strains of bacteria [1] | Efs201 MIC [2] | Sa399 MIC [3] | Efm384 MIC [4] | Sa42 MIC [5] | Mean % Protection 1 Day Post Dosing [6] | Mean % Protection 21 Days Post Dosing [6] | as active or more active than daptomycin [7] | more active against bacteria than daptomycin [7] | C. diff MIC90 [8] | Efs312 MIC [9] | Sa278 MIC [10] | C. diff MIC50 Nap-1 [11] | C. diff MIC90 Nap-1 [11]
1 | CCCCCCCc1ccc(C(=O)N[C@@H](Cc2c[nH]c3ccccc23)C(=O)N[C@H](CC(N)=O)C(=O)N[C@@H](CC(=O)O)C(=O)N[C@@H]2C(=O)NCC(=O)N[C@@H](CCCN)C(=O)N[C@@H](CC(=O)O)C(=O)N[C@H](C)C(=O)N[C@@H](CC(=O)O)C(=O)NCC(=O)N[C@H](CO)C(=O)N[C@@H]([C@H](C)CC(=O)O)C(=O)N[C@@H](CC(=O)c3ccccc3N)C(=O)O[C@@H]2C)cc1 [Compound 33, N-(4-heptylbenzoyl)-L-tryptophyl-D-asparaginyl-L-α-aspartyl-L-threonylglycyl-L-ornithyl-L-α-aspartyl-D-alanyl-L-α-aspartylglycyl-D-seryl-(3R)-3-methyl-L-α-glutamyl-(αS)-α,2-diamino-γ-oxobenzenebutanoic acid (13→4)-lactone] | useful against daptomycin resistant strains of bacteria | 0.5 µg/mL | 0.125 µg/mL | 4 µg/mL and 2 µg/mL | 0.25 µg/mL | 85% | 69% | as active or more active than daptomycin | more effective than daptomycin |  |  |  |  | 
2 | CCCCCC12CCC(C(=O)N[C@@H](Cc3c[nH]c4ccccc34)C(=O)N[C@H](CC(N)=O)C(=O)N[C@@H](CC(=O)O)C(=O)N[C@@H]3C(=O)NCC(=O)N[C@@H](CCCN)C(=O)N[C@@H](CC(=O)O)C(=O)N[C@H](C)C(=O)N[C@@H](CC(=O)O)C(=O)NCC(=O)N[C@H](CO)C(=O)N[C@@H]([C@H](C)CC(=O)O)C(=O)N[C@@H](CC(=O)c4ccccc4N)C(=O)O[C@@H]3C)(CC1)CC2 [Compound 22, N-(4-pentylbicyclo[2.2.2]octane-1-carbonyl)-L-tryptophyl-D-asparaginyl-L-α-aspartyl-L-threonylglycyl-L-ornithyl-L-α-aspartyl-D-alanyl-L-α-aspartylglycyl-D-seryl-(3R)-3-methyl-L-α-glutamyl-(αS)-α,2-diamino-γ-oxobenzenebutanoic acid (13→4)-lactone] | useful against daptomycin resistant strains of bacteria |  |  |  |  | 85% | 38% | as active or more active than daptomycin |  | 1 µg/mL |  |  |  | 
3 | CCCCCCC1CCC(c2ccc(C(=O)N[C@@H](Cc3c[nH]c4ccccc34)C(=O)N[C@H](CC(N)=O)C(=O)N[C@@H](CC(=O)O)C(=O)N[C@@H]3C(=O)NCC(=O)N[C@@H](CCCN)C(=O)N[C@@H](CC(=O)O)C(=O)N[C@H](C)C(=O)N[C@@H](CC(=O)O)C(=O)NCC(=O)N[C@H](CO)C(=O)N[C@@H]([C@H](C)CC(=O)O)C(=O)N[C@@H](CC(=O)c4ccccc4N)C(=O)O[C@@H]3C)cc2)CC1 (stereo partly drawn) [Compound 54, N-[4-(−4-hexylcyclohexyl)benzoyl]-L-tryptophyl-D-asparaginyl-L-α-aspartyl-L-threonylglycyl-L-ornithyl-L-α-aspartyl-D-alanyl-L-α-aspartylglycyl-D-seryl-(3R)-3-methyl-L-α-glutamyl-(αS)-α,2-diamino-γ-oxobenzenebutanoic acid (13→4)-lactone] | useful against daptomycin resistant strains of bacteria |  |  |  |  | 0% | 0% | as active or more active than daptomycin | more effective than daptomycin |  |  |  |  | 
4 | CCCCCc1ccc(/C(C)=C/C(=O)N[C@@H](Cc2c[nH]c3ccccc23)C(=O)N[C@H](CC(N)=O)C(=O)N[C@@H](CC(=O)O)C(=O)N[C@@H]2C(=O)NCC(=O)N[C@@H](CCCN)C(=O)N[C@@H](CC(=O)O)C(=O)N[C@H](C)C(=O)N[C@@H](CC(=O)O)C(=O)NCC(=O)N[C@H](CO)C(=O)N[C@@H]([C@H](C)CC(=O)O)C(=O)N[C@@H](CC(=O)c3ccccc3N)C(=O)O[C@@H]2C)cc1 [Compound 49, N-{1-[(E)-3-(4-pentylphenyl)but-2-enoyl]}-L-tryptophyl-D-asparaginyl-L-α-aspartyl-L-threonylglycyl-L-ornithyl-L-α-aspartyl-D-alanyl-L-α-aspartylglycyl-D-seryl-(3R)-3-methyl-L-α-glutamyl-(αS)-α,2-diamino-γ-oxobenzenebutanoic acid (13→4)-lactone] |  |  |  | 4 µg/mL |  |  |  |  |  |  | 8 µg/mL and 4 µg/mL | 1 µg/mL | 0.25 µg/mL | 0.50 µg/mL
5 | CCCCCCCCc1ccc(C(=O)N[C@@H](Cc2c[nH]c3ccccc23)C(=O)N[C@H](CC(N)=O)C(=O)N[C@@H](CC(=O)O)C(=O)N[C@@H]2C(=O)NCC(=O)N[C@@H](CCCN)C(=O)N[C@@H](CC(=O)O)C(=O)N[C@H](C)C(=O)N[C@@H](CC(=O)O)C(=O)NCC(=O)N[C@H](CO)C(=O)N[C@@H]([C@H](C)CC(=O)O)C(=O)N[C@@H](CC(=O)c3ccccc3N)C(=O)O[C@@H]2C)cc1 [Compound 34, N-(4-octylbenzoyl)-L-tryptophyl-D-asparaginyl-L-α-aspartyl-L-threonylglycyl-L-ornithyl-L-α-aspartyl-D-alanyl-L-α-aspartylglycyl-D-seryl-(3R)-3-methyl-L-α-glutamyl-(αS)-α,2-diamino-γ-oxobenzenebutanoic acid (13→4)-lactone] | useful against daptomycin resistant strains of bacteria |  |  | 2 µg/mL and 4 µg/mL |  | 85% | 38% | as active or more active than daptomycin | more effective than daptomycin | 1 µg/mL | 4 µg/mL and 8 µg/mL |  |  | 
